Experimental findings from patent US11179384B2, “Treatment of nonalcoholic fatty liver disease” (TAKEDA GMBH, priority 2016, dated 2021) are described below.

One assay concerns Homozygous LDLR-KO mice. Briefly: Prophylactic effects in a mouse model of NASH (LDLR-KO mice, mCDAA diet). The settings on record: LDLR-KO mice on mCDAA diet, 1, 3 and 10 mg/kg p.o. QD for 7 weeks. The class given is in vivo. The procedure: Prophylactic effects of Compound A on parameters such as a) hepatic fibrosis formation, b) hepatic triglyceride formation and c) plasma ALT reduction were examined in a rodent model of NASH.
(§1) Homozygous low-density lipoprotein receptor knockout (LDLR-KO) mice were fed with chow or modified choline deficient, L-amino acid-defined (mCDAA) diet (A08111307, Research Diets, USA). After 1 week under chow or mCDAA diet, the mice were orally dosed with Compound A (1, 3 and 10 mg/5 ml/kg, QD, n=10; suspension in 0.5 w/v % methylcellulose suspension) for 7 weeks.

For assay [1], the system named is tissue inhibitor of metalloproteases-1 (TIMP-1) gene expression. Briefly: Hepatic gene expression in prophylactic NASH mouse model, TIMP-1 (Taqman PCR). The class given is in vivo. The settings on record: LDLR-KO mice on mCDAA diet; 1, 3 and 10 mg/kg p.o. QD for 7 weeks; liver mRNA. The procedure: as §1
In addition prophylactic effects of Compound A on hepatic gene expression were evaluated. After total RNA was extracted from liver, cDNA was amplified using High-Capacity cDNA Reverse Transcription Kit (ABI 4368813), and target gene mRNA was measured using Taqman PCR. The target gene expression level was normalized by GAPDH.

A further assay concerns Male C57BL/6J mice (DIO). Briefly: Body weight, fat and lean mass, 4 weeks treatment in diet-induced obese (DIO) mice. The class given is in vivo. To be noted: for Body weight change from pretreatment (Day 0): mean±S.D., vehicle +3.8%. The procedure:
Male C57BL/6J mice were obtained from CLEA Japan, Inc. The mice were fed High fat diet D12451 (Research diets, Inc) from 5 week to 54-week old and water ad libitum.
All mice were housed individually in animal cages and used for the study after 2 weeks of acclimation period. Animal groups (n=7) were treated with either vehicle (0.5 w/v % methylcellulose, p.o.) or Compound A (1 mg/kg or 3 mg/kg, p.o. suspension in 0.5 w/v % methylcellulose solution) in the evening once a day for 4 weeks from 50 weeks of age. Body weight was measured 2 or 3 times per week. Regarding body composition fast mass and lean mass were measured.
Body composition (fat mass and lean mass) was measured by Echo-MRI-900 (ALOKA Japan).
All data are presented as mean±S.D. For evaluation of the effects of Compound A, statistical significances between vehicle (p.o.) and Compound A treated groups were analyzed with one-tailed Williams' test or Shirley-Williams test when the variances among the groups were homogeneous or heterogeneous, respectively. The p-values less than 0.025 were considered statistically significant in one-tailed Williams' test or Shirley-Williams test. Body weight change from pretreatment (Day 0) was calculated using the following formula: [(BW-BW at Day 0)/BW at Day 0]×100.

A further assay concerns Female db/db mice. The assay is described as follows: HbA1c, 4 weeks treatment in db/db mice. To be noted: 28 days, vehicle 9.06%. The class given is in vivo. The procedure: Female db/db mice were purchased from Taconic (Lille Skensved, Denmark) at 5-6 weeks of age and were maintained under standard conditions (5 animals/cage; 12 h light-dark cycle; room temperature of 22±2° C.; relative humidity of 60±15%). All mice had free access to water and standard chow (Provimi Kliba, Kaiseraugst, Switzerland). Four days upon arrival animals were randomized based on body weight and levels of glycated hemoglobin 1c (HbA1c). At 7 weeks of age, animals were treated daily by oral gavage with vehicle (4% methylcellulose) or with Compound A (composed in aqueous 4% methylcellulose) using doses of 1, 3 and 10 mg/kg s.i.d. (doses related to free base). The required dose was applied in a volume of 10 ml/kg body weight. Each dose group consisted of 10 animals. At the end of the treatment period plasma samples were isolated for determination of HbA1c levels. All experimental procedures were conducted according to the German Animal Protection Law.
HbA1c was analyzed from tail-tip-blood (HbA1c determination before treatment) as well as from blood collected from the retro-orbital venous plexus (HbA1c determination after 4 weeks treatment) using the Hemoglobin A1c Test (Siemens, Bad Nauheim, Germany).
Statistical analysis: Values are presented as means±SEM. Statistical differences were determined using one-way-ANOVA followed by a post-hoc analysis with Dunnet's correction (GraphPad Prism).

For assay [2], the system named is TNFα gene expression in THP-1 cells. Briefly: Anti-inflammatory effect in THP-1 cells (LPS-induced TNFα gene expression). The class given is cell-based, human. To be noted: PMA-treated THP-1 cells; 0.0001-1 μM, LPS 1 ng/mL, forskolin 0.1 μM, 5 hours. The procedure: Anti-inflammatory effect of Compound A was evaluated by gene expression of TNFα induced by LPS in THP-1 cells, a human monocytic cell line.
THP-1 cells (ATCC) were suspended in RPMI medium containing 10% FBS and 50 ng/mL PMA (2.5×10^5 cells/mL) and seeded on 96 well plates. Fourty-eight hours after the seeding, the medium was exchanged to serum-free RPMI medium. Three hours after the exchange, Compound A (0, 0.0001, 0.001, 0.01, 0.1 and 1 μM), LPS (1 ng/mL), and forskolin (0.1 μM) were added to the THP-1 cells. After the 5-hours incubation, total RNA was extracted from cell lysate using RNeasy 96 Kit (QIAGEN 74182). cDNA was amplified using High-Capacity cDNA Reverse Transcription Kit (ABI 4368813), and target gene mRNA was measured using Taqman PCR. The target gene expression level was normalized by GAPDH. The experiment was repeated 5 times.

For assay [3], the system named is Tumor Necrosis Factor Alpha (TNFα). The assay is described as follows: Systemic TNFα release in LPS-challenged Sprague Dawley rats. The class given is in vivo. The settings on record: SD rats; 0.1, 0.3, 1, 3 and 10 mg/kg p.o. 1 h before LPS 20 μg/kg i.v.; plasma 1 h after LPS; significant at all doses. The procedure:
Compound A was administered 1 h before LPS challenge at doses of 0.1, 0.3, 1, 3 and 10 mg/kg (n=8 animals per dose group). An LPS and vehicle treated control group of n=8 animals was enclosed. Compound A or vehicle was given per os (p.o.) by gavage (administration volume: 10 mL/kg b.w.). LPS was injected intravenously (i.v.) at a dose of 20 μg/kg (administration volume: 1 mL/kg b.w.) 1 h after compound or vehicle administration.
One hour after LPS-challenge, the animals were sacrificed by inhalative isoflurane anaesthesia (5%; flow rate: 2-3 L/min) and subsequent cervical dislocation. Heparinized blood was obtained by heart puncture. Blood was centrifuged (21,000×g, 4° C., 10 min), and plasma samples were kept frozen at −20° C. until determination of TNFα levels by ELISA.

[4] abbreviates: 1 mg/kg p.o. once a day for 4 weeks.
Where [5] appears, read: 1 and 3 mg/kg p.o. once a day for 4 weeks.

`CCOc1cc2c(cc1OC)C(c1ccc(=O)n(C)c1)=N[C@@H]1CC[C@@H](O)C[C@H]21` [Compound A, 5-((2R,4aR,10bR)-9-Ethoxy-2-hydroxy-8-methoxy-1,2,3,4,4a,10b-hexahydro-phenanthridin-6-yl)-1-methyl-1H-pyridin-2-one]: in the assay with Homozygous LDLR-KO mice, the Body weight entry is given as “slightly decreased”, the “Hepatic triglyceride (TG) content” value was “significantly reduced”, the Liver weight result is “dose dependently decreased” and the “epididymal white adipose tissue (surrogate for body fat mass)” value is recorded as “dose dependently decreased”. Also, in the assay with Homozygous LDLR-KO mice, the food intake result is listed as “no change” and the “plasma ALT levels” value was “significantly reduced”. Further, the hepatic fibrosis area entry in the assay on Homozygous LDLR-KO mice (started after 1 week of diet) was “dose-dependent reduction”. The “hepatic TIMP-1 gene expression (normalized by GAPDH)” value in assay [1] is listed as “dose-dependent reduction”. In the assay on Male C57BL/6J mice (DIO) (setting [4]), the “body weight reduction corrected with vehicle-treated body weight change” value is listed as −8.7±3.5% and the “Body weight change from pretreatment (Day 0)” value was −4.9±3.5%. Further, the “Body weight change from pretreatment (Day 0)” value in the assay on Male C57BL/6J mice (DIO) (3 mg/kg p.o. once a day for 4 weeks) is given as −17.2±4.0%. In addition, the “body weight during the 4-week study period” value in the assay on Male C57BL/6J mice (DIO) (1 and 3 mg/kg p.o. once a day) is listed as “durable body weight lowering effect”. For the same compound, in the assay with Male C57BL/6J mice (DIO) (setting [5]), the “fat mass (Echo-MRI)” value was “dose dependently and significantly decreased”; the “lean mass (Echo-MRI)” value was “without affecting”. The “mean HbA1c” value in the assay on Female db/db mice (1 mg/kg p.o. daily, 1 mg/kg) is 7.27%. Besides, the “mean HbA1c” value with Female db/db mice (3 mg/kg p.o. daily, 3 mg/kg) is 7.06%. The “mean HbA1c” value in the assay on Female db/db mice (10 mg/kg p.o. daily, 10 mg/kg) was found to be 6.16%. Further, the “LPS-induced TNF-α gene expression in THP-1 cells” value in assay [2] is given as “dose-dependently suppressed”. Moreover, in assay [3], the “mean TNFα in blood plasma” value was “dose-dependently reduced”.
